Data set [1] can be described thus: Drug concentrations in plasma and tumor tissue by LC-MS. The data set is classed as in vivo. Particulars: 50 h; for Tumor tissue levels (approximately μmol/L) / Tumor tissue levels: U87 tumor tissue; for Maximum plasma levels: tumor-bearing nude mice. As for the experimental part: Blood was collected in heparinized syringes using cardiac puncture of nude mice. The blood was allowed to settle at room temperature for 30 min followed by centrifugation at 2,000 rpm for 5 min at 4° C. The plasma was separated from the cells and transferred to a fresh tube. […] After thorough vortexing, plasma proteins were precipitated using 425 μL acetonitrile and vortexing for 1 min. The entire mixture was centrifuged at 4,500 rpm for 5 min to separate the protein precipitate, and 400 μL of the supernatant were transferred to a fresh tube. The sample was evaporated using a steady stream of air, and the dried residue was reconstituted using 150 μL of mobile phase consisting of 80:20 (v/v) methanol:10 mmol/L ammonium acetate (pH 4.5). To remove any undissolved precipitates, the samples were again centrifuged at 4,500 rpm for 5 min, and the supernatant was transferred to a fresh tube. Ten microliters of each sample were analyzed in duplicate by liquid chromatography mass spectrometry.
To determine the amount of drug in each sample, an Agilent 1100 high-pressure liquid chromatography system (Agilent Technologies, Santa Clara, Calif.) coupled onto a Sciex API 3000 triple quadruple tandem mass spectrometer (Applied Biosystems, Foster City, Calif.) was used. To separate the analytes, a Thermo HyPURITY C18 column (50×4.6 mm, 3 micron; Thermo Fisher Scientific, Inc., Waltham, Mass.) was used. The mobile phase consisted of 80:20 (v/v) methanol:10 mmol/L ammonium acetate (pH 4.5). […] The analytes were then introduced into the Sciex API 3000, which was set in the negative ion mode. […] The lower level of quantification of this assay was established at 5 ng/mL.

For data set [2], the system named is polyubiquitinated proteins in U251 cells. The data set is described as follows: Western blot of polyubiquitinated proteins, U251. Type of data set: cell-based, human. Particulars: U251, increasing concentrations, 24 hours. As for the experimental part:
Total cell lysates were analyzed by Western blot with specific antibodies to ubiquitin, GRP78, CHOP, and caspase 4. Actin was used as a loading control. […] Note that in the caspase 4 blots several non-specific background bands were observed (consistent with similar observations in the literature); the specific bands were identified with the use of various controls (not shown) and comparison to the literature.
Total cell lysates were prepared and analyzed by Western blot analysis as described earlier (19). Immunohistochemical analysis of protein expression in tumor tissues was performed with the use of the Vectastain avidin-biotin complex method kit (Vector Laboratories) as described previously (32). The primary antibodies were purchased from Cell Signaling Technology or Santa Cruz Biotechnology, Inc. and used according to the manufacturers' recommendations. All immunoblots and stainings were repeated at least once to confirm the results.
(Immunoblotting shows a protein as a band on a membrane.)

In the next data set the test system is U251 glioblastoma cells. The data set is described as follows: Colony formation assay after siRNA transfection, U251. The data set is classed as cell-based, human. To be noted: 48 h. As for the experimental part: U251 glioblastoma cells were transiently transfected with si-RNA directed at GRP78 (si-GRP78) or caspase 4 (si-Casp 4). As a control, an siRNA targeted at green fluorescent protein (si-GFP) was used. […] After 48 hours of drug treatment, the drugs were removed and the fraction of surviving cells was determined by colony forming assays. Shown is the percentage of surviving cells (where the number of colonies under non-drug treated conditions was set to 100%). […] (B) In order to verify the effectiveness of the si-RNAs, Western blot analysis of the target proteins was performed. Note that the knock-down of GRP78 leads to increased levels of CHOP protein, as expected from the model of ER stress, where GRP78 signaling is upstream of CHOP.
U251 cells were transiently transfected with si-RNA directed at GRP78 (si-GRP78). As a control, an siRNA targeted at green fluorescent protein (si-GFP) was used. […] In parallel, transfected control cultures received no drug treatment or treatment with solvent (DMSO) alone. After 48 hours, the drugs were removed and the fraction of surviving cells was determined by colony forming assays over the course of 12-14 days. […]
Twenty-four hours after transfection with small interfering RNA (siRNA), the cells were seeded into six-well plates at 200 cells per well. […] Colonies were visualized by staining for 4 h with 1% methylene blue (in methanol) and then counted. […]

Data set [3] has as its system U87MG glioblastoma cell line. Description: MTT assay, U87MG. Type of data set: cell-based. To be noted: Homo sapiens, U-87 MG, 48 h, read-out: IC50 (50% inhibition of cell growth). As for the experimental part: For comparison purposes to the known anti-multiple myeloma effects of bortezomib, the RPMI/8226 multiple myeloma cell line was included in (A).
3-(4,5-Dimethylthiazol-2-yl)-2,5-diphenyltetrazolium bromide (MTT) assays were performed in 96-well plates with the use of 3.0×10^3 to 8.0×10^3 cells per well as described in detail elsewhere (19).
(In general: Tetrazolium dyes change colour on reduction, which living cells bring about.)

Where [4] appears, read: 30 mg/kg/d, average of two measurements.
[5] abbreviates: 30 mg/kg/d, half dose every 12 h into the stomach, average of two measurements.
Setting [6] is: 90 mg/kg/d, average of two measurements.
[7] abbreviates: 90 mg/kg/d, half dose every 12 h into the stomach, average of two measurements.
The mark [8] stands for this setting: 150 mg/kg/d, average of two measurements.
Setting [9] is: 150 mg/kg/d, half dose every 12 h into the stomach, average of two measurements.
[10] abbreviates: 180 mg/kg/d, average of two measurements.
Setting [11] is: 180 mg/kg/d, half dose every 12 h into the stomach, average of two measurements.

These results are taken from patent publication US9486461B2, “Methods and compositions for inducing apoptosis by stimulating ER stress” (UNIVERSITY OF SOUTHERN CALIFORNIA, priority 2007, dated 2016).

Molecules are shown by their SMILES. pIC50: −log10 of the molar value. Where “and” joins values, the source holds several entries; their conditions need not be identical. Equal entries are not always repeated.

With `Cc1ccc(C)c(-c2cc(C(F)(F)F)nn2-c2ccc(S(N)(=O)=O)cc2)c1` [DMC, 4-[5-(2,5-dimethylphenyl)-3-(trifluoromethyl)-1H-pyrazol-1-yl]benzenesulfonamide], the “Tumor tissue levels (approximately μmol/L)” value is about 0.021 µmol/L in data set [1] (30 mg/kg/d), about 0.037 µmol/L in data set [1] (90 mg/kg/d), about 0.099 µmol/L in data set [1] (150 mg/kg/d) and about 0.280 µmol/L in data set [1] (180 mg/kg/d). The Tumor tissue levels was 8.27 ng/mg in data set [1] (setting [4]), 14.44 ng/mg in data set [1] (setting [6]), 39.04 ng/mg in data set [1] (setting [8]) and 110.42 ng/mg in data set [1] (setting [10]). The Maximum plasma levels in data set [1] (30 mg/kg/d) is 7.6 µmol/L; in data set [1] (setting [5]) it was 3,035 μg/L; in data set [1] (90 mg/kg/d), 8.0 µmol/L; in data set [1] (setting [7]) it was 3,190 μg/L; in data set [1] (150 mg/kg/d) it was 23.8 µmol/L; in data set [1] (setting [9]), 9,500 μg/L. Moreover, the Maximum plasma levels is 45 µmol/L and 45.5 µmol/L in data set [1] (180 mg/kg/d); 18,200 μg/L in data set [1] (setting [11]). The “accumulation of polyubiquitinated proteins” value in data set [2] is reported as “did not cause substantial accumulation of polyubiquitinated proteins”. The “cell survival when GRP78 levels were reduced by siRNA (vs si-GFP)” value in the data set with U251 glioblastoma cells (U251, 40 μM Cxb or 30 μM DMC) is reported as “less cell survival”. The “cell survival when caspase-4 expression was diminished by siRNA (vs si-GFP)” value with U251 glioblastoma cells (U251, 60 μM Cxb or 40 μM DMC) is listed as “increased”. For the same compound, in data set [3], the pIC50 – broadly, the IC50 on a negative log10 scale, so that one unit is a factor of ten – is over 4.40.

Consider `Cc1ccc(-c2cc(C(F)(F)F)nn2-c2ccc(S(N)(=O)=O)cc2)cc1` [celecoxib, 4-[5-(4-methylphenyl)-3-(trifluoromethyl)-1H-pyrazol-1-yl]benzenesulfonamide], for which the “Tumor tissue levels (approximately μmol/L)” value was about 0.046 µmol/L in data set [1] (30 mg/kg/d); about 0.116 µmol/L in data set [1] (90 mg/kg/d); about 0.161 µmol/L in data set [1] (150 mg/kg/d); about 0.25 µmol/L in data set [1] (180 mg/kg/d); about 0.249 µmol/L in data set [1] (180 mg/kg/d, listed as Cxb). For the same compound, the Tumor tissue levels in data set [1] (setting [4]) stood at 17.53 ng/mg; in data set [1] (setting [6]) it was 44.03 ng/mg; in data set [1] (setting [8]) it was 61.23 ng/mg; in data set [1] (setting [10]), 94.78 ng/mg. Moreover, the Maximum plasma levels was 18.2 µmol/L in data set [1] (30 mg/kg/d); 6,950 μg/L in data set [1] (setting [5]); 24.8 µmol/L in data set [1] (90 mg/kg/d); 9,450 μg/L in data set [1] (setting [7]); 36.8 µmol/L in data set [1] (150 mg/kg/d); 14,000 μg/L in data set [1] (setting [9]). In addition, the Maximum plasma levels in data set [1] (180 mg/kg/d) is 45 µmol/L; in data set [1] (180 mg/kg/d, listed as Cxb), 44.6 µmol/L; in data set [1] (setting [11]), 17,000 μg/L. Moreover, in data set [3], the pIC50 was about 4.30.
